Measured values reported in ChEMBL document CHEMBL1201862, “PubChem BioAssay data set” (2004).
Activity calls are given as the source filed them.

Assays:
[1] = inhibitors of non-replicating M. tuberculosis, dose response, luciferase, dry powder (AID 651619); format: functional; details: Mycobacterium tuberculosis
[2] = inhibitors of non-replicating M. tuberculosis, dose response, luciferase, dry powder (AID 651620); format: functional; details: Mycobacterium tuberculosis
[3] = Late stage counterscreen for inhibitors of Trypanosoma brucei methionyl tRNA synthetase (MetRS): Luminescence-based cell-based high throughput dose response assay to identify compounds that are cytotoxic to Jurkat human T lymphocyte cells.; format: functional
Kallikrein-7 = Kallikrein-7 (Homo sapiens, UniProt P49862); experiment: Fluorescence Intensity-based biochemical primary high throughput dose response assay to identify activators of kallikrein-7 (K7) zymogen.
[4] = target: T1, Microphthalmia-associated transcription factor (Homo sapiens, UniProt O75030); experiment: reducers of TRPM1 reporter luminescence, concentration series – cell-based, SK-MEL-5, cherry-picked, set 3, MITF inhibitor project, dose response (AID 493073); format: functional;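 further: SK-MEL-5 melanoma cells with luciferase driven by the MITF target TRPM1 promoter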
T1 sequence (O75030 whole entry): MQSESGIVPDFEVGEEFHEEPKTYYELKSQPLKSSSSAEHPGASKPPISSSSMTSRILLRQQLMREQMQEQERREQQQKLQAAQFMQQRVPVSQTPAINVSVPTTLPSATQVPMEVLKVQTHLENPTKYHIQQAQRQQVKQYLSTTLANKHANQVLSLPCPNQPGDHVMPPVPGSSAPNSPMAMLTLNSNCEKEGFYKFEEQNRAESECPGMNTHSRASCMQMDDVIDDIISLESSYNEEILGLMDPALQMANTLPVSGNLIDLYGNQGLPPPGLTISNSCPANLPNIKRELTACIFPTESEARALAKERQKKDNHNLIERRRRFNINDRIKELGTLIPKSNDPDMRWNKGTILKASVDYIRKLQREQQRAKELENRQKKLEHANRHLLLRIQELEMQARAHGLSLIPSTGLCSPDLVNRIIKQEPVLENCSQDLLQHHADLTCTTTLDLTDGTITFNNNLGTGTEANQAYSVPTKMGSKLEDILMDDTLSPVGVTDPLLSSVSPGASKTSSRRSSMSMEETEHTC

[5] = target: T2, Replicative DNA helicase DnaB (Mycobacterium tuberculosis, UniProt P9WMR3); experiment: DnaB intein splicing inhibitors, dose response, biochemical, cell-free fluorescence (AID 449749); format: functional
T2 sequence (P9WMR3 whole entry): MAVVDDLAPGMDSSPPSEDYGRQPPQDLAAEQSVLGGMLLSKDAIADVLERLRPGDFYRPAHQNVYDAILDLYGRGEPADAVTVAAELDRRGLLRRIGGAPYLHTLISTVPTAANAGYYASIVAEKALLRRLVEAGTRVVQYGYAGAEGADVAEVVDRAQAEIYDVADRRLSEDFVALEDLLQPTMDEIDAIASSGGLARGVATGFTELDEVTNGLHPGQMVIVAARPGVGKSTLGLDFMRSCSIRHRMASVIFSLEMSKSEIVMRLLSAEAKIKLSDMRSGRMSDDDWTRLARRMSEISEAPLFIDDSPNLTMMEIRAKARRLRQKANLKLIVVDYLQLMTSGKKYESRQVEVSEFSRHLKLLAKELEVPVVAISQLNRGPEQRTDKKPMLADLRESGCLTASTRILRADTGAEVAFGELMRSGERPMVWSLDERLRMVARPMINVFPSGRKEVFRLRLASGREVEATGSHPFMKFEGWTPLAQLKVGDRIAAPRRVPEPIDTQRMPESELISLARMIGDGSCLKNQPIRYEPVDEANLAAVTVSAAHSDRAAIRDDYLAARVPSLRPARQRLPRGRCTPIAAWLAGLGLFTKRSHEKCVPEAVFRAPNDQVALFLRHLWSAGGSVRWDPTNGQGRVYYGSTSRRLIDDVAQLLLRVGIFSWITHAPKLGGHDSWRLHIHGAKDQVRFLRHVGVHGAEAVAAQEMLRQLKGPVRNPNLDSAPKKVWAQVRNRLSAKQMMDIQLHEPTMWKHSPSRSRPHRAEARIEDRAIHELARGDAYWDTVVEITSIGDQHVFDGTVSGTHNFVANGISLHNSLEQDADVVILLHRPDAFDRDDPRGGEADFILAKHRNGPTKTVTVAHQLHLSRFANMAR

Fatty acid synthase [6] = target: T3, Fatty acid synthase (Homo sapiens, UniProt P49327); experiment: inhibition of human FAS-TE enzyme activity – biochemical, endpoint fluorescence intensity, uHTS hits, dose response (AID 624327); format: functional;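 further: fluorescence from hydrolysis of an O-methyl fluorescein acyl ester substrate by the enzyme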
Protein RecA = target: T4, Protein RecA (Mycobacterium tuberculosis, UniProt P9WHJ3); experiment: Fluorescence Cell-Free Homogeneous Dose Retest to Identify Inhibitors of RecA-Intein Splicing Activity. [Related pubchem assays (depositor defined):AID2097, AID2223, AID489010, AID492950]; format: functional
T4 sequence (P9WHJ3 whole entry): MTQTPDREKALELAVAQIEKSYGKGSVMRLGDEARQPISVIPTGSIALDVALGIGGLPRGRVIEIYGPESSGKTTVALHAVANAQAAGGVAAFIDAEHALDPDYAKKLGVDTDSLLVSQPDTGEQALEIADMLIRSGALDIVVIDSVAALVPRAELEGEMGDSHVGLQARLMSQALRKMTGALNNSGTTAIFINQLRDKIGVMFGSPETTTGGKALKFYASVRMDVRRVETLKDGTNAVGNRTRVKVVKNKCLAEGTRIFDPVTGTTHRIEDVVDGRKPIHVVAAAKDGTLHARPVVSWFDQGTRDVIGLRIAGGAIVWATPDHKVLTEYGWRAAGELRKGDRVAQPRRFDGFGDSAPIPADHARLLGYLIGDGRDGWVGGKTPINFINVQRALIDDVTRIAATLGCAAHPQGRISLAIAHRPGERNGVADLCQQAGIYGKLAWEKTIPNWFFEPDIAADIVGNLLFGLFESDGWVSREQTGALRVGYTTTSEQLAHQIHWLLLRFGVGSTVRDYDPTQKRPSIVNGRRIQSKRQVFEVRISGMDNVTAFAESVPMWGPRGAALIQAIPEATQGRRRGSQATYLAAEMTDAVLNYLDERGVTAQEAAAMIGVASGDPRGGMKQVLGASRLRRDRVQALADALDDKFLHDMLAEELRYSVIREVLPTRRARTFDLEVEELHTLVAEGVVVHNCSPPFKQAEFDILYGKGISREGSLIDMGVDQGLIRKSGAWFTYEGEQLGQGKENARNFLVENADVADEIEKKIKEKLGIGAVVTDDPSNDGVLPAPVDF

[7] = loss of viability in HepG2 cells – cell-based, CellTiter-Glo, cherry-picked, cytotoxicity control for Shn3 inhibitor project, dose response (AID 624134); format: functional
[8] = Fluorescence-based cell-based high throughput dose response assay for inhibitors of the interaction of nucleotide-binding oligomerization domain containing 2 (NOD2) and the receptor-interacting serine-threonine kinase 2 (RIPK2).; format: functional; details: Homo sapiens
[9] = Shn3 transcript knock-down in Clone20 cells – cell-based, qPCR, cherry-pick, dose response (AID 743415); format: functional
[10] = reduction of Shn3 3'UTR-driven luciferase in osteoblasts – cell-based, Clone20 osteoblasts, firefly luciferase, cherry-picked, dose response (AID 624132); format: functional;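 further: firefly luciferase luminescence from reporter carrying the Shn3 3'UTR in osteoblasts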
Fatty acid synthase [11] = target: T3, Fatty acid synthase; experiment: inhibition of human FAS-TE enzyme activity – biochemical, kinetic fluorescence intensity, dose response (AID 624326); format: functional;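 further: rate of fluorescence rise from hydrolysis of a fluorogenic O-methyl fluorescein ester substrate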
[12] = Shn3 3'UTR reporter signal decrease – cell-based, Clone20 osteoblasts, firefly luciferase, cherry-pick, set 2, Schnurri-3 inhibitor project, dose response (AID 720490); format: functional;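 further: actives lower the luminescence signal as inhibitors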
[13] = non-specific 3'UTR reporter inhibition in Clone20-Shn3RL – cell-based, Renilla luciferase, cherry-picked, counter-screen for Shn3 inhibitor project, dose response (AID 624133); format: functional
Beta Lactamase = Beta Lactamase (Pseudomonas aeruginosa, UniProt Q932Y6); experiment: BLA reporter interference, concentration series – BLA reporter cells, FRET fluorescence, artefact control for NOD2-RIPK2 interaction inhibitor project, dose response (AID 651552); format: functional, cell-based
Vasopressin V1b receptor = Vasopressin V1b receptor (Homo sapiens, UniProt P47901); experiment: Late-stage results from the probe development effort to identify antagonists of arginine vasopressin receptor 1a (AVPR1a): fluorescence-based cell-based dose response AVPR1b inhibition counterscreen assay.; format: functional
[14] = Late-stage results from the probe development effort to identify antagonists of arginine vasopressin receptor 1a (AVPR1a): fluorescence-based cell-based dose response AVPR1a inhibition assay.; format: functional
Vasopressin V2 receptor = Vasopressin V2 receptor (Homo sapiens, UniProt P30518); experiment: Late-stage results from the probe development effort to identify antagonists of arginine vasopressin receptor 1a (AVPR1a): fluorescence-based cell-based dose response AVPR2 inhibition counterscreen assay.; format: functional
[15] = Late-stage results from the probe development effort to identify antagonists of arginine vasopressin receptor 1a (AVPR1a): fluorescence-based cell-based dose response OXTR inhibition counterscreen assay.; format: functional
[16] = alpha-synuclein stem-loop luciferase translation blockers – H4 neuroglioma cells, luminescence, confirmation (AID 1988); format: functional, cell-based
[17] = luciferase reporter signal suppression in cells – H4 neuroglioma cells, luminescence, dose response (AID 1990); format: functional, cell-based
[18] = IC50 of Artemis nuclease activity blockers – biochemical, fluorescence intensity, dose response (AID 720701); format: functional;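 further: Artemis endonuclease enzyme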
[19] = Luminescence Cell-Based Dose Response HTS to Identify Inhibitors of 5'UTR Stem-Loop Driven Prion Protein mRNA Translation in H4 Neuroglioblastoma Cells. [Related pubchem assays: 1827 (Project Summary), 1813 (Primary HTS)]; format: functional
[20] = viability loss in A549 lung cells – cell-based, 24 h, CellTiter-Glo luminescence, cherry-picks, cytotoxicity control, dose response (AID 1053115); format: functional; details: A549, 24 h
[21] = Luminescence Cell-Based Dose Retest to Confirm Inhibitors of Cancer Stem Cells. [Related pubchem assays (depositor defined):AID2717, AID2721]; format: functional; details: Homo sapiens
cells = details: A549
[22] = viability loss in HepG2 liver cells – cell-based, ATP luminescence, cherry-pick, set 6, cytotoxicity control, dose response (AID 1053125); format: functional
[23] = mouse embryonic fibroblast toxicity – cell-based, plate reader, dry powder, set 2, cytotoxicity control, dose response (AID 652280); format: functional; details: NIH3T3
[24] = OVCAR8 cell viability loss – plate reader, dry powder samples, PAX8 project, dose response (AID 743197); format: functional, cell-based; details: OVCAR-8
[25] = IGROV1 cell killing – plate reader, dry powder samples, PAX8 inhibitor project, dose response (AID 743043); format: functional, cell-based; details: IGROV-1
[26] = OVCAR-3 cell viability loss – plate reader, dry powder samples, PAX8 inhibitor project, dose response (AID 743044); format: functional, cell-based
[27] = toxicity toward immortalized ovarian surface epithelium – cell-based, plate reader, dry powder samples, cytotoxicity control for PAX8 inhibitor project, dose response (AID 743045); format: functional
Paired box protein Pax-8 = Paired box protein Pax-8 (Homo sapiens, UniProt Q06710); experiment: PAX8 transcriptional activity inhibition in RMG-I – RMG-I cells, luciferase, cherry-pick, dose response (AID 687027); format: functional, cell-based;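 further: luciferase reporter driven by Pax8 target thyroperoxidase promoter measured by SteadyGlo luminescence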
Paired box protein Pax-8, sequence (Q06710 whole entry): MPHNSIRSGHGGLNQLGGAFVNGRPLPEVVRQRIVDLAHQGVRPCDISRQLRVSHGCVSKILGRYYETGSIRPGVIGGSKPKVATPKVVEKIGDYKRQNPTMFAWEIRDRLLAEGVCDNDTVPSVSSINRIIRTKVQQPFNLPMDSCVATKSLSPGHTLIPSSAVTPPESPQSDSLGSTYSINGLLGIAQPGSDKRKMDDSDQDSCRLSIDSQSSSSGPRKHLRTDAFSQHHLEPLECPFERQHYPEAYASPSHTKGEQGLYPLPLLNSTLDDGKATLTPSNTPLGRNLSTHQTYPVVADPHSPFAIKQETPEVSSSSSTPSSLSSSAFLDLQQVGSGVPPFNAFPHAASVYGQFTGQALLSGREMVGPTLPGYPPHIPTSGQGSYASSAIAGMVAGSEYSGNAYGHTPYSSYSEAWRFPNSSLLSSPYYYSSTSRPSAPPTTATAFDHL

T3 sequence (P49327 whole entry): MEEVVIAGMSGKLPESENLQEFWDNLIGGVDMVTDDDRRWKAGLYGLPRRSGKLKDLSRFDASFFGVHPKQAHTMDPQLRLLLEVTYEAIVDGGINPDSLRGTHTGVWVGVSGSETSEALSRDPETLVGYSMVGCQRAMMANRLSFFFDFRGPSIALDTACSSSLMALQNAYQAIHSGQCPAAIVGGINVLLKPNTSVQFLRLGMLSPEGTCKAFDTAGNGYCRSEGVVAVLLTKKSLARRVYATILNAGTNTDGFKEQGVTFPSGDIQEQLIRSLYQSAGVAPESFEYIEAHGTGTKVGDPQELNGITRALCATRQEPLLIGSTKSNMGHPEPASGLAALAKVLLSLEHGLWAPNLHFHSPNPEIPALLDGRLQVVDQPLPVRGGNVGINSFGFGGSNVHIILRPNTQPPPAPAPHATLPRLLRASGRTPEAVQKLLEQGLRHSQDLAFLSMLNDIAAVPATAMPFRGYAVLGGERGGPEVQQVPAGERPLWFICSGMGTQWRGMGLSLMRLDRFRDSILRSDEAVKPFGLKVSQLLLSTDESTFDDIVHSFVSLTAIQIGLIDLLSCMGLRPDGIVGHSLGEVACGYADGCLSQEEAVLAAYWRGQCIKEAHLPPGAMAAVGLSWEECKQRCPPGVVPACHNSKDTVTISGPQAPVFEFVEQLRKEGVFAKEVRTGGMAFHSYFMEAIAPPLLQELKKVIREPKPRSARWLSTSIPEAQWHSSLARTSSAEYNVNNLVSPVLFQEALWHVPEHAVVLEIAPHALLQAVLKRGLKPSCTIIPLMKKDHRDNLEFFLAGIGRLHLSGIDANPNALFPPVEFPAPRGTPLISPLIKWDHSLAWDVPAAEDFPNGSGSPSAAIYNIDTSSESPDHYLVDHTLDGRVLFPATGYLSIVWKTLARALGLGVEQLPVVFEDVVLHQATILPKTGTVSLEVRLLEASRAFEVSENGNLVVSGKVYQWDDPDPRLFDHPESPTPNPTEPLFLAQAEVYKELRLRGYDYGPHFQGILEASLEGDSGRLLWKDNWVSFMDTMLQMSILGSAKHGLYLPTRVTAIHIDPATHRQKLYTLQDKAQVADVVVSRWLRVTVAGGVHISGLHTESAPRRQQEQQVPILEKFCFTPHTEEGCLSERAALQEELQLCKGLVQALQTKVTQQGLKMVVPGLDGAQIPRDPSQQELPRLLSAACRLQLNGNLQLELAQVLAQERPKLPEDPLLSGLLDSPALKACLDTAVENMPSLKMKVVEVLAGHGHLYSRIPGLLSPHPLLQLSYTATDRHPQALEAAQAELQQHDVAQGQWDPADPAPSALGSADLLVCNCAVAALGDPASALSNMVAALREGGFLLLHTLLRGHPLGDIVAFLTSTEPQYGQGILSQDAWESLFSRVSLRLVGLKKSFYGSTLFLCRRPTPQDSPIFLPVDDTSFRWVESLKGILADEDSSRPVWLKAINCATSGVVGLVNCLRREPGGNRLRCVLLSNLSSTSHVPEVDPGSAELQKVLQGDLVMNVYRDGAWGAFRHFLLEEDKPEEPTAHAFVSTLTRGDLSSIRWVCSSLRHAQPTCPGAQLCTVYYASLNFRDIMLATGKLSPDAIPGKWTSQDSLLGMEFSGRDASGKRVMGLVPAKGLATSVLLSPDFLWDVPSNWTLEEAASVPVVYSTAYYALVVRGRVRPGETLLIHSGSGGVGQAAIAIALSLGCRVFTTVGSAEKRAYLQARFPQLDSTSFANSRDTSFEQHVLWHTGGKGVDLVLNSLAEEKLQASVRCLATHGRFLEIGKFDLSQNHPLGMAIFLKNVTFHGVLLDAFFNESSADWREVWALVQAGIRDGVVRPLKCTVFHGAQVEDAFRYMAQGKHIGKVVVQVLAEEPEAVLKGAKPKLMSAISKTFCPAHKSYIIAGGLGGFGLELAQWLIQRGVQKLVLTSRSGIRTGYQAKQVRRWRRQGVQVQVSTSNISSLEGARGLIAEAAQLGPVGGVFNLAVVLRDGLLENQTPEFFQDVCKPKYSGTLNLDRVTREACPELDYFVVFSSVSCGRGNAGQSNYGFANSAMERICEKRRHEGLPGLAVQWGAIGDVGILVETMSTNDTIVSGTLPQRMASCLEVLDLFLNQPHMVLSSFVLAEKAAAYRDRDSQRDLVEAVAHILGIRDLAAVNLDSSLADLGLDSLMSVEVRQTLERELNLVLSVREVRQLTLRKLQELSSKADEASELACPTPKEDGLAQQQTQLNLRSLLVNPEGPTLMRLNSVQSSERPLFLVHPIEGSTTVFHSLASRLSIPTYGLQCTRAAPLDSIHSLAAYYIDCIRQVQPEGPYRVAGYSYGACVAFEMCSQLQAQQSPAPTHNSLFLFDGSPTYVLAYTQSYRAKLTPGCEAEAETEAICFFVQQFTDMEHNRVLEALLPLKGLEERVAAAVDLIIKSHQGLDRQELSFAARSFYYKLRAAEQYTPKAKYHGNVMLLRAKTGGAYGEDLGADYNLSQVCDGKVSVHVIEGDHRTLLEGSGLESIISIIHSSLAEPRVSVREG
Beta Lactamase, sequence (Q932Y6 whole entry): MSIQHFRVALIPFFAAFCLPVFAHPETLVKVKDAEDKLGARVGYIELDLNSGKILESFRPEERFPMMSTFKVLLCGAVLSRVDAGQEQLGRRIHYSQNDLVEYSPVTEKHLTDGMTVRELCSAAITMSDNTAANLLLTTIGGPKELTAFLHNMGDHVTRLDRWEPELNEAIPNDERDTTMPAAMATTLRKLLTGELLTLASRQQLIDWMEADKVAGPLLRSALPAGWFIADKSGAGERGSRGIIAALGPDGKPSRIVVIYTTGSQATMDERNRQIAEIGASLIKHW
Kallikrein-7, sequence (P49862 whole entry): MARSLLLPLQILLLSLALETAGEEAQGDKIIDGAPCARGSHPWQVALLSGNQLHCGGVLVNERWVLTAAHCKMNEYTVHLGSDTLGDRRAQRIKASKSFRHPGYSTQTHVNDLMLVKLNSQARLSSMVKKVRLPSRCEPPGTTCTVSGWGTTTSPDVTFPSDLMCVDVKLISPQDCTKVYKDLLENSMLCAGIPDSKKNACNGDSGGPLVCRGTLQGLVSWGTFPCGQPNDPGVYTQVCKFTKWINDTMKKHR
Vasopressin V1b receptor, sequence (P47901 whole entry): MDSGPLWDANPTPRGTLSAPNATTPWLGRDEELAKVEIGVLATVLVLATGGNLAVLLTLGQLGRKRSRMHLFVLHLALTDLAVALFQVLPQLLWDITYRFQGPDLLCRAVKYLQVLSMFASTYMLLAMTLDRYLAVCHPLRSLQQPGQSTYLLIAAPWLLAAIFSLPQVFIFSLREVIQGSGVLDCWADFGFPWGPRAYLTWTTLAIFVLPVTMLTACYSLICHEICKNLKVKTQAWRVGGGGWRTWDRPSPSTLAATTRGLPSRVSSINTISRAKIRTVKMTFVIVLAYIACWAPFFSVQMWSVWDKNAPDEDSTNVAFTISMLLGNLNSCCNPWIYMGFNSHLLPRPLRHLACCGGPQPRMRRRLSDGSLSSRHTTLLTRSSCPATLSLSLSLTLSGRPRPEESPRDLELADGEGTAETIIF
Vasopressin V2 receptor, sequence (P30518 whole entry): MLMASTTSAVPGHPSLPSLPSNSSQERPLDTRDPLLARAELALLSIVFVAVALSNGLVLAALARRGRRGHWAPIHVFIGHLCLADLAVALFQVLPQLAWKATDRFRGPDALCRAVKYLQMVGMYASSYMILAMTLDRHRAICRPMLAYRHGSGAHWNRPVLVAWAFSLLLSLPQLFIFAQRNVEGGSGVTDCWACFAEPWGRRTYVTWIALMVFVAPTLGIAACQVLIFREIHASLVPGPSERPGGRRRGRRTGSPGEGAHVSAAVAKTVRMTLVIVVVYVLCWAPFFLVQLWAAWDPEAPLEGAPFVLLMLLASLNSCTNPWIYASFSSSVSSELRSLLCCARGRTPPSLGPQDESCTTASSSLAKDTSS

Fc1ccc(-c2nnc(SCc3cn(-c4ccccc4)nn3)o2)cc1
IC90 [1]: 1 µM (active) | IC90 [2]: 1 µM (active)

O=C(CC(=O)Nc1cccc(Cl)c1)NN=Cc1ccccc1
IC50 [3]: > 83.3 µM (inactive)

Cc1cc(=O)oc2c3c(cc(OCC(=O)NCc4ccncc4)c12)OC(C)(C)CC3
EC50 (Kallikrein-7): > 69.5 µM (inactive)

CC(C)[C@H](NC(=O)OC(C)(C)C)c1nnc(S(=O)(=O)Cc2c(F)cccc2Cl)o1
AC50 [4]: 11.6 µM (active) | AC50 [5]: 4.9 µM (active) | IC50 (Fatty acid synthase [6]): 3.02 µM (active) | EC50 (Protein RecA): 9.61 µM (active) | AC50 [7]: 61.7 µM (active) | IC50 [8]: 1.97 µM (active) | AC50 [9]: 12 µM (active) | AC50 [10]: 1.08 µM (active) | IC50 (Fatty acid synthase [11]): 1.61 µM (active) | AC50 [12]: 3.07 µM (active) | AC50 [13]: 13.5 µM (active) | IC50 (Beta Lactamase): 10.5 µM (inactive)

Cc1ccnc(N2CCN(C(=O)N(CC3CC3)c3ccc(Cl)cc3)CC2)c1
IC50 (Vasopressin V1b receptor): > 50 µM (inactive) | IC50 [14]: 0.0158 µM (active) | IC50 (Vasopressin V2 receptor): > 50 µM (inactive) | IC50 [15]: > 50 µM (inactive)

CSc1nnc2c3cc(C)ccc3n(Cc3ccccc3)c2n1
EC50 [16]: > 120 µM (not active) | EC50 [17]: > 120 µM (not active) | IC50 [18]: 19.8 µM (active) | EC50 [19]: > 120 µM (not active)

O=C(Nc1ccc2c(c1)[C@@H]1C[C@@H](CC(=O)N3CCCCC3)O[C@@H](CO)[C@@H]1O2)Nc1ccccc1F
AC50 [20]: 47.8 µM (active)

CCCCCCc1cc2cc(S(=O)(=O)c3ccc(C)cc3)c(=O)oc2cc1O
AC50 [21]: 2.46 µM (active) | AC50 (cells): 37.9 µM (active) | AC50 [22]: > 52 µM (inactive)

Cc1ccccc1-c1ccc([C@H]2[C@H](CO)N3CCCCN(CC4CC4)C[C@@H]23)cc1
AC50 [23]: 3.99 µM (active)

C[C@H]1CCCCO[C@H](CN(C)C(=O)Nc2ccc(C(F)(F)F)cc2)[C@@H](C)CN([C@@H](C)CO)C(=O)c2cc(NS(=O)(=O)c3ccc(Cl)cc3)ccc2O1
AC50 [24]: 37.2 µM (active) | AC50 [25]: 47.6 µM (active) | AC50 [26]: 20.1 µM (active) | AC50 [27]: 51.5 µM (active) | AC50 (Paired box protein Pax-8): 4.68 µM (active)
